Literature values, collected in patent US20120201889A1, “MODIFIED AND IMMEDIATE RELEASE FORMULATIONS OF MEMANTINE” (Forest Laboratories Holdings Ltd., priority 2005, published 2012).

Conditions: after oral administration

For `CC12CC3CC(C)(C1)CC(N)(C3)C2` [memantine, 1-amino-3,5-dimethyladamantane], the absolute bioavailability is listed as “approximately 100%”.
